In US12686673B2 (Blueprint Medicines Corporation, priority 2020, dated 2026):
Structures can show the parent of a compound that is named as a salt. Where two headings read alike, the source gives them in different places.

Tests used:
Format in all cases: cell-based
A431 cells = assay: Cellular proliferation (Alamar Blue) assay, A431
[1] = biological target: EGFR(D770_N771insSVD) expressing Ba/F3 stable cell line (Homo sapiens, UniProt P00533, DUP768-770, cells depend on it); assay: Cellular proliferation (Alamar Blue) assay, EGFR D770_N771insSVD Ba/F3; settings: 72 hr, read-out: D770 IC50
Chain of EGFR(D770_N771insSVD) expressing Ba/F3 stable cell line (P00533 with tags, fused parts or gaps DUP768-770): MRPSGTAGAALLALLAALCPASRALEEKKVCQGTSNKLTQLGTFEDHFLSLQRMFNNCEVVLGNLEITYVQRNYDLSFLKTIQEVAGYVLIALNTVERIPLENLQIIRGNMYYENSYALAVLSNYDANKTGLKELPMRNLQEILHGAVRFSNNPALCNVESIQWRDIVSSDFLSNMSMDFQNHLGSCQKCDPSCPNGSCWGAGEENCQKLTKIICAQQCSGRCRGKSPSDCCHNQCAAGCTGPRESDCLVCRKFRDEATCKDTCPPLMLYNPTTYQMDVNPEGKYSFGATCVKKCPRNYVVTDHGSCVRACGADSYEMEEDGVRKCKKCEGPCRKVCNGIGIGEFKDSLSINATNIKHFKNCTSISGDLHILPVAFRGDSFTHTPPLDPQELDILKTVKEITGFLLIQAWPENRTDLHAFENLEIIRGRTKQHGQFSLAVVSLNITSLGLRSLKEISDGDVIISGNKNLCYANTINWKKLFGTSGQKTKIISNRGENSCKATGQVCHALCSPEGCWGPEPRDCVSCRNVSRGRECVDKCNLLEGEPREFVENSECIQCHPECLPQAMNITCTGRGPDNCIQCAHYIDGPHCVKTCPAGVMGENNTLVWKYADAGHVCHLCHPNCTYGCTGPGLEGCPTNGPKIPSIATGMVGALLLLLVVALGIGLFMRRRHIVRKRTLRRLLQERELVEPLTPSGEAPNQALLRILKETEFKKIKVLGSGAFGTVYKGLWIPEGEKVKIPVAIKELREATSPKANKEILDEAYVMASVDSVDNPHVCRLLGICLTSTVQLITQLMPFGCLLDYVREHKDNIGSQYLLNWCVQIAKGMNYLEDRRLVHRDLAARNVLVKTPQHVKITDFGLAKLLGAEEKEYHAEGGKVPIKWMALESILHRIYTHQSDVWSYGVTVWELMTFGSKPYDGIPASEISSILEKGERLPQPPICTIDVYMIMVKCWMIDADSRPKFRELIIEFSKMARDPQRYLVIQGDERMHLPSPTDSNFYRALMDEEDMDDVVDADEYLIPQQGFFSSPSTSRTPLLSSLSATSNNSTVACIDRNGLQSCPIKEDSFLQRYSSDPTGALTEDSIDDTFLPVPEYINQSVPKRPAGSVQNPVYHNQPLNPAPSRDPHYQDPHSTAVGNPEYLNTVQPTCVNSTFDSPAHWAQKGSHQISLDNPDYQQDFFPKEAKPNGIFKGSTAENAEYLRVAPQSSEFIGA
How it was run: (§1)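 Alamar Blue read-out, 3 h at 37 °C, after 72 hr compound exposure of Ba/F3 transfectants (15,000 cells/well, RPMI + 10% FBS, plated 16-18 h earlier).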

[2] = biological target: HER2 (A775_G776insYVMA) expressing Ba/F3 stable cell line (Homo sapiens, UniProt P04626, DUP772-775, cells depend on it); assay: Cellular proliferation (Alamar Blue) assay, HER2 A775_G776insYVMA Ba/F3; settings: 72 hr, read-out: YVMA IC50
Chain of HER2 (A775_G776insYVMA) expressing Ba/F3 stable cell line (P04626 with tags, fused parts or gaps DUP772-775): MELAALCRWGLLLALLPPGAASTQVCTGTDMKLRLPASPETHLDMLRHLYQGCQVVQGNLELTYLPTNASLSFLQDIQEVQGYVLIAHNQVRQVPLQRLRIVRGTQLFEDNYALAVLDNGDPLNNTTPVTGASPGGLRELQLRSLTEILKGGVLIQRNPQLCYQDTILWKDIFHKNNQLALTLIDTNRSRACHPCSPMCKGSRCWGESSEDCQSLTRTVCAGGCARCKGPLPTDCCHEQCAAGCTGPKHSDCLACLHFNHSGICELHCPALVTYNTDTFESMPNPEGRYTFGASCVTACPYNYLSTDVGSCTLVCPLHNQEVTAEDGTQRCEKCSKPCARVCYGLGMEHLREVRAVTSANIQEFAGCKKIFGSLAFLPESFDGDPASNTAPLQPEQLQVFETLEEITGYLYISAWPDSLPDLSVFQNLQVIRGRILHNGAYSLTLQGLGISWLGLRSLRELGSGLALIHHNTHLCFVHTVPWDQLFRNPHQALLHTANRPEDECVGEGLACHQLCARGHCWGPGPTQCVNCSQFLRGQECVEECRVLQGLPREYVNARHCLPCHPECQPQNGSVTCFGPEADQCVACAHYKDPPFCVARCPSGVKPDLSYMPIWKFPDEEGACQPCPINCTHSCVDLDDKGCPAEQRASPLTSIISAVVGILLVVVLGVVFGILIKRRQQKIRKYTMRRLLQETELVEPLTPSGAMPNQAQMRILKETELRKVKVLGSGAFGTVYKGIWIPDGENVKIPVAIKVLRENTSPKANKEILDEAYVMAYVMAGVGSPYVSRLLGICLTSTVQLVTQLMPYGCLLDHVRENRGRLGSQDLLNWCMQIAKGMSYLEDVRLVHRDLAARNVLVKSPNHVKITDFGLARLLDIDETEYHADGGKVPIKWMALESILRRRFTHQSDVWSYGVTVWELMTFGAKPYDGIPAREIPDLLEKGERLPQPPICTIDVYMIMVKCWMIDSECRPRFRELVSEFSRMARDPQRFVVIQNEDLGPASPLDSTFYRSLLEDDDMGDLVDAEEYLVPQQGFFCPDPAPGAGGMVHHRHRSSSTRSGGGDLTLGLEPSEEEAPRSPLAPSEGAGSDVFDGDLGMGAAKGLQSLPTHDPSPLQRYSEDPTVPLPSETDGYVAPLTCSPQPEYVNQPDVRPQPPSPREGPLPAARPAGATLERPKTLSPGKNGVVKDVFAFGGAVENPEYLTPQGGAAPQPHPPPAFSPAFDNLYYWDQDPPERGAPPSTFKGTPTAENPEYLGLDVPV
How it was run: as §1

[3] = biological target: EGFR (H773insNPH) expressing Ba/F3 stable cell line (Homo sapiens, UniProt P00533, DUP771-773, cells depend on it); assay: Cellular proliferation (Alamar Blue) assay, EGFR H773insNPH Ba/F3; settings: 72 hr, read-out: NPH IC50
Chain of EGFR (H773insNPH) expressing Ba/F3 stable cell line (P00533 with tags, fused parts or gaps DUP771-773): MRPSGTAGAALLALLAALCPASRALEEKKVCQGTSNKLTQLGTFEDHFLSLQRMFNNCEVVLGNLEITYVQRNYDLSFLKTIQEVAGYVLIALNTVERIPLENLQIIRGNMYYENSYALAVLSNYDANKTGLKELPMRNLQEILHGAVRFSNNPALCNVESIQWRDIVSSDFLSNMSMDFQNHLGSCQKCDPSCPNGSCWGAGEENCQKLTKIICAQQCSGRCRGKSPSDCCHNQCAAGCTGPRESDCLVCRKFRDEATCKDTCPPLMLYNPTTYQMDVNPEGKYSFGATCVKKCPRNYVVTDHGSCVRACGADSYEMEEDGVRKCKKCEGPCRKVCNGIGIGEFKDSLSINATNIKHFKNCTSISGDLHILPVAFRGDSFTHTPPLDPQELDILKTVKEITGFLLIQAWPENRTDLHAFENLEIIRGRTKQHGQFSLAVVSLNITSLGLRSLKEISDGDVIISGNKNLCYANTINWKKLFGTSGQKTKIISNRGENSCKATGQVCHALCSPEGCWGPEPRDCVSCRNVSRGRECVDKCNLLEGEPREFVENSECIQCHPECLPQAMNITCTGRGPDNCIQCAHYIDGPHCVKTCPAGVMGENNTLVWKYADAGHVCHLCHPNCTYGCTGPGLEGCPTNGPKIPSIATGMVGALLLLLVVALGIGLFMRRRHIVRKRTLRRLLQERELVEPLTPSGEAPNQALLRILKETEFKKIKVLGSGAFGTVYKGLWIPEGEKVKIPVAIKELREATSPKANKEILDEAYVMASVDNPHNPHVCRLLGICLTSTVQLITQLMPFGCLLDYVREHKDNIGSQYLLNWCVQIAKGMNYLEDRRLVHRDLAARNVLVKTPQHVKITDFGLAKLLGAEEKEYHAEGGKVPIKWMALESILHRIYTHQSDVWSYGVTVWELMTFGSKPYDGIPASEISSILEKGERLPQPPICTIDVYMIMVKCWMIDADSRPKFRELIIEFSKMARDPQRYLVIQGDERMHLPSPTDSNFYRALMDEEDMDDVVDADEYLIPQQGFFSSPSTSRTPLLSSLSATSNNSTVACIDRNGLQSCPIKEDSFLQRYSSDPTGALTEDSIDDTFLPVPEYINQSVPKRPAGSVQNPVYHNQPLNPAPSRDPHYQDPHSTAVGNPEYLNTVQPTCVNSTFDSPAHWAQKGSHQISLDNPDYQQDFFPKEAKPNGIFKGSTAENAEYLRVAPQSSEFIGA
Procedure: • 1. EGFR(D770_N771insSVD) expressing Ba/F3 stable cell line • 2. EGFR (A767_dupASV) expressing Ba/F3 stable cell line • 3. A431 cells • 4. EGFR (H773insNPH) expressing Ba/F3 stable cell line • 5. HER2 (A775_G776insYVMA) expressing Ba/F3 stable cell line Assay Procedure: • 1. Seed cells at 5000 for A431 and 15,000 cells for Ba/F3 in 100 μL/well in complete media (for A431: DMEM with […] and for Ba/F3 cells: RPMI with 10% FBS) in 96-well tissue culture plate. Leave outer wells without cells for background measurements. Incubate at 37 degree Celsius in […] humidified incubator for 16-18 hours. • 2. Add 0.025 ml of 5× concentration compound dilution or DMSO control. Final compound concentration range is 10-0.0005 μM prepared in 3-fold serial dilutions. Incubate for 72 hr at 37 degree Celsius in […] humidified incubator. • 3. Add 0.0125 ml Alamar Blue™ reagent to each well with multi-channel pipette and tap gently on each side of the plate to mix. Incubate for 3 hours at 37 degree Celsius in 5% CO2 humidified incubator. • 4. […] Data analysis was performed using XLfit 5.5.0.5.

[4] = biological target: EGFR (A767_dupASV) expressing Ba/F3 stable cell line (Homo sapiens, UniProt P00533, DUP767-769, cells depend on it); assay: Cellular proliferation (Alamar Blue) assay, EGFR A767_dupASV Ba/F3; settings: 72 hr, read-out: A767 IC50
Chain of EGFR (A767_dupASV) expressing Ba/F3 stable cell line (P00533 with tags, fused parts or gaps DUP767-769): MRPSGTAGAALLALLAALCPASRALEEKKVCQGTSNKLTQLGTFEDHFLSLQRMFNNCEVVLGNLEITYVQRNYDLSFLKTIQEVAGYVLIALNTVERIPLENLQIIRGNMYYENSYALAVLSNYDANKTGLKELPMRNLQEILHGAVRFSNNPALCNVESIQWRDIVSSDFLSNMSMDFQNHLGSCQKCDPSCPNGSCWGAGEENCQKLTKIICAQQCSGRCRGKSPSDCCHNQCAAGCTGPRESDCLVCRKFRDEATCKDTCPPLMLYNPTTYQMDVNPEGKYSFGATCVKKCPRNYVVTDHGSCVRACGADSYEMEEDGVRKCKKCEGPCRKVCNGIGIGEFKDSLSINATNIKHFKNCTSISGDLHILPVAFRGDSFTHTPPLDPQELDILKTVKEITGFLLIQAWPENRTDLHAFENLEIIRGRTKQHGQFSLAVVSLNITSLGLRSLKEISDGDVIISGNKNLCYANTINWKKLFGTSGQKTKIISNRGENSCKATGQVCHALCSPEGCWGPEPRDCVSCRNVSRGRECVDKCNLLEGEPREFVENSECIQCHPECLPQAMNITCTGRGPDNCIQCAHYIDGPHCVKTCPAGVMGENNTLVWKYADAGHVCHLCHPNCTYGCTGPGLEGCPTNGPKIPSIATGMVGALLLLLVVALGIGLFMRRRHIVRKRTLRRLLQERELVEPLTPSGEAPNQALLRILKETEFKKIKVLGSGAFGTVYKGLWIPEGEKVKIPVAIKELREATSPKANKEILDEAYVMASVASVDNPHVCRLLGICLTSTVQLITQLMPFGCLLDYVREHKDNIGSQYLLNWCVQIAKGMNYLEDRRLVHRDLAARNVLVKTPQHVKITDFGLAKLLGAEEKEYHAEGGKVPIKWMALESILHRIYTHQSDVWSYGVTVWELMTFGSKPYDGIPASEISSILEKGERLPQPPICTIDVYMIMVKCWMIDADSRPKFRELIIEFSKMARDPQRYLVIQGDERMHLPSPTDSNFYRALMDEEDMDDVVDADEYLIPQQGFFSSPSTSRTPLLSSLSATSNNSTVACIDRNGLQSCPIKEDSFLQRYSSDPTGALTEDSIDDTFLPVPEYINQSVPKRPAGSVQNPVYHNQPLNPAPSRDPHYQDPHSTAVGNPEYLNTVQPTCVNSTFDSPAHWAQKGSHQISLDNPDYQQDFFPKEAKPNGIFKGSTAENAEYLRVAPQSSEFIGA
How it was run: as §1

[5] = Homo sapiens, A-431; A431 cells, Alamar Blue, 72 hr; read-out: A431 IC50
[6] = Homo sapiens, A-431; A431 cells, 72 hr, Alamar Blue; read-out: A431 IC50

IC50 (A431 cells; [5]) [nM]	GI50 [1] [nM]	GI50 [2] [nM]	GI50 [3] [nM]	GI50 [4] [nM]	IC50 (A431 cells; [6]) [nM]	SMILES
1830	320	756	192	170	–	C=CC(=O)Nc1ccc(F)c(Nc2nc(Nc3cnn(C4CCN(C)CC4)c3)ncc2Cl)c1 [Compound 14, N-(3-((5-chloro-2-((1-(1-methylpiperidin-4-yl)-1H-pyrazol-4-yl)amino)pyrimidin-4-yl)amino)-4-fluorophenyl)acrylamide]
27	105	134	149	238	–	C=CC(=O)Nc1ccc(F)c(Nc2nc(Nc3ccc(CN(C)C)cc3)ncc2-c2ccc(C(F)(F)F)cc2)c1 [Compound 45, N-(3-((2-((4-((dimethylamino)methyl)phenyl)amino)-5-(4-(trifluoromethyl)phenyl)pyrimidin-4-yl)amino)-4-fluorophenyl)acrylamide trifluoroacetate]
7300	873	–	1890	1020	–	CN(C)C/C=C/C(=O)Nc1cccc(Nc2nc(Nc3cn(C)nc3Cl)ncc2-c2ccc(C(F)(F)F)cc2)c1 [Compound 53, (E)-N-(3-((2-((3-chloro-1-methyl-1H-pyrazol-4-yl)amino)-5-(4-(trifluoromethyl)phenyl)pyrimidin-4-yl)amino)phenyl)-4-(dimethylamino)but-2-enamide]
4530	296	–	380	1040	–	CN(C)C/C=C/C(=O)Nc1cccc(Nc2nc(Nc3cn(C)nc3Cl)ncc2C(F)(F)F)c1 [Compound 54, (E)-N-(3-((2-((3-chloro-1-methyl-1H-pyrazol-4-yl)amino)-5-(trifluoromethyl)pyrimidin-4-yl)amino)phenyl)-4-(dimethylamino)but-2-enamide]
34	–	92	41	–	–	C=CC(=O)Nc1ccc(F)c(Nc2nc(Nc3cnn(C)c3)ncc2-c2cncc(C(F)(F)F)c2)c1 [Compound 56, N-(4-fluoro-3-((2-((1-methyl-1H-pyrazol-4-yl)amino)-5-(5-(trifluoromethyl)pyridin-3-yl)pyrimidin-4-yl)amino)phenyl)acrylamide]
1940	44	177	82	71	–	C=CC(=O)Nc1ccc(F)c(Nc2nc(Nc3cnn(C)c3)ncc2-c2ccc(C(F)(F)F)nc2)c1 [Compound 57, N-(4-fluoro-3-((2-((1-methyl-1H-pyrazol-4-yl)amino)-5-(6-(trifluoromethyl)pyridin-3-yl)pyrimidin-4-yl)amino)phenyl)acrylamide]
261	56	219	91	99	–	C=CC(=O)Nc1ccc(F)c(Nc2nc(Nc3cnn(C)c3)ncc2-c2ccc(Cl)cc2)c1 [Compound 61, N-(3-((5-(4-chlorophenyl)-2-((1-methyl-1H-pyrazol-4-yl)amino)pyrimidin-4-yl)amino)-4-fluorophenyl)acrylamide]
1280	60	344	116	102	–	C=CC(=O)Nc1ccc(F)c(Nc2nc(Nc3cnn(C)c3)ncc2-c2ccc(F)cc2)c1 [Compound 63, N-(4-fluoro-3-((5-(4-fluorophenyl)-2-((1-methyl-1H-pyrazol-4-yl)amino)pyrimidin-4-yl)amino)phenyl)acrylamide]
138	–	50	73	35	–	C=CC(=O)Nc1ccc(F)c(Nc2nc(Nc3cnn(C)c3)ncc2-c2ccc(C)nc2)c1 [Compound 66, N-(4-fluoro-3-((2-((1-methyl-1H-pyrazol-4-yl)amino)-5-(6-methylpyridin-3-yl)pyrimidin-4-yl)amino)phenyl)acrylamide]
120	30	26	41	36	–	C=CC(=O)Nc1ccc(F)c(Nc2nc(Nc3cnn(C)c3)ncc2-c2cncc(C)c2)c1 [Compound 67, N-(4-fluoro-3-((2-((1-methyl-1H-pyrazol-4-yl)amino)-5-(5-methylpyridin-3-yl)pyrimidin-4-yl)amino)phenyl)acrylamide]
168	35	–	48	31	–	C=CC(=O)Nc1ccc(F)c(Nc2nc(Nc3cnn(C)c3)ncc2-c2cncc(Cl)c2)c1 [Compound 102, N-(3-((5-(5-chloropyridin-3-yl)-2-((1-methyl-1H-pyrazol-4-yl)amino)pyrimidin-4-yl)amino)-4-fluorophenyl)acrylamide]
309	34	30	34	–	–	C=CC(=O)Nc1ccc(F)c(Nc2nc(Nc3cnn(C)c3)ncc2-c2cncc(C(F)F)c2)c1 [Compound 110, N-(3-((5-(5-(difluoromethyl)pyridin-3-yl)-2-((1-methyl-1H-pyrazol-4-yl)amino)pyrimidin-4-yl)amino)-4-fluorophenyl)acrylamide]
163	–	57	29	36	–	C=CC(=O)Nc1cccc(Nc2nc(Nc3cnn(C)c3)ncc2-c2ccc(OC)nc2)c1 [Compound 118, N-(3-((5-(6-methoxypyridin-3-yl)-2-((1-methyl-1H-pyrazol-4-yl)amino)pyrimidin-4-yl)amino)phenyl)acrylamide trifluoroacetate]
> 10000	> 10000	–	> 10000	> 10000	–	C=CC(=O)Nc1ccc(F)c(Nc2nc(Nc3cnn(C)c3)ncc2-c2cccc(N(C)CCN(C)C)c2)c1 [Compound 125, N-(3-((5-(3-((2-(dimethylamino)ethyl)(methyl)amino)phenyl)-2-((1-methyl-1H-pyrazol-4-yl)amino)pyrimidin-4-yl)amino)-4-fluorophenyl)acrylamide]
158	294	–	323	388	–	C=CC(=O)Nc1ccc(F)c(Nc2nc(Nc3cnn(C)c3)ncc2-c2ccc3nccn3c2)c1 [Compound 133, N-(4-fluoro-3-((5-(imidazo[1,2-a]pyridin-6-yl)-2-((1-methyl-1H-pyrazol-4-yl)amino)pyrimidin-4-yl)amino)phenyl)acrylamide trifluoroacetate]
–	1420	–	2810	5960	1180	Cn1cc(Nc2ncc(-c3ccc(C(F)(F)F)cc3)c(Nc3cc(NC(=O)CCl)ccc3F)n2)cn1 [Compound 252, 2-chloro-N-[4-fluoro-3-({2-[(1-methyl-1H-pyrazol-4-yl)amino]-5-[4-(trifluoromethyl)phenyl]pyrimidin-4-yl}amino)phenyl]acetamide]
–	8450	–	> 10000	8750	3980	C=CS(=O)(=O)Nc1ccc(F)c(Nc2nc(Nc3cnn(C)c3)ncc2-c2ccc(C(F)(F)F)cc2)c1 [Compound 253, N-[4-fluoro-3-({2-[(1-methyl-1H-pyrazol-4-yl)amino]-5-[4-(trifluoromethyl)phenyl]pyrimidin-4-yl}amino)phenyl] ethene-1-sulfonamide]

SMILES	IC50 (A431 cells; [5]) [nM]	GI50 [1] [nM]	GI50 [2] [nM]	GI50 [3] [nM]	GI50 [4] [nM]	IC50 (A431 cells; [6]) [nM]
C=CC(=O)Nc1ccc(F)c(Nc2nc(Nc3cnn(C)c3)ncc2-c2ccc(C(F)(F)F)cc2)c1 [Compound 37, N-(4-fluoro-3-((2-((1-methyl-1H-pyrazol-4-yl)amino)-5-(4-(trifluoromethyl)phenyl)pyrimidin-4-yl)amino)phenyl)acrylamide]	185	34	974	85	73	–
